Assay results from US9650339B2, “Inhibitors of histone demethylases” (Gilead Sciences, Inc., priority 2013, dated 2017).

Assays:
[1] = biological target: T1, KDM5B (Homo sapiens, UniProt Q9UGL1); experiment: Histone lysine demethylase immunofluorescence assay, U2OS cells transfected with KDM5B; assay type: cell-based; details: U2OS cells transfected with pCMVHA KDM5B; mark detected H3K4me2; 20 hours
T1 construct: (a.a. 1-752); host or cells: U2OS
T1 sequence (Q9UGL1 1-752): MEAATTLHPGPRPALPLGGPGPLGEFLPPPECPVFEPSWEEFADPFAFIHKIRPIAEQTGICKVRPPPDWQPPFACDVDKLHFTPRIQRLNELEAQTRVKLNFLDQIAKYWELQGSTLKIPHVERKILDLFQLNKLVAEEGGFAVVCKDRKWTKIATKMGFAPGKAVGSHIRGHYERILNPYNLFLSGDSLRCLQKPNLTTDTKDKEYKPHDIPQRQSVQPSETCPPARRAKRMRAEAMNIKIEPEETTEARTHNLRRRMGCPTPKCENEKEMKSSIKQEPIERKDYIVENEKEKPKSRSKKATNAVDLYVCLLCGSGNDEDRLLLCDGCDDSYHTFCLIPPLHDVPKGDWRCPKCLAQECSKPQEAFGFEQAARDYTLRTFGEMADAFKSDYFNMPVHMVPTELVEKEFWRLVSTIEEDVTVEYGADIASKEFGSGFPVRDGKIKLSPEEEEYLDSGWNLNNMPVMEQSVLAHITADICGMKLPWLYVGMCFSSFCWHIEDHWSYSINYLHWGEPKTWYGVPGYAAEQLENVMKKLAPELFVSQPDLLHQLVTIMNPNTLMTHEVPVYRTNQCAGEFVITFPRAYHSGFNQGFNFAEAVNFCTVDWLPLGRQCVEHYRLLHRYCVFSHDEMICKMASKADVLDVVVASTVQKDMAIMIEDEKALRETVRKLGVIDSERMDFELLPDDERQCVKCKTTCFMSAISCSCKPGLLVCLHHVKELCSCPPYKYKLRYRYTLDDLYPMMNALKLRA
Summary of the method: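 U2OS cells were transiently transfected with HA-tagged demethylase and reseeded after 6 h into compound-containing DMEM/10% FBS for 20 h. Cells were fixed in formaldehyde and immunostained for HA and the relevant histone methyl mark, then imaged. IC50 is based on mean mark staining in HA+ transfected cells.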

[2] = biological target: T2, KDM4B (JMJD2B) (Homo sapiens, UniProt O94953); experiment: Histone lysine demethylase AlphaLISA assay, KDM4B; assay type: biochemical; details: read-out: KDM4B HDME Inhibition IC50
T2 construct: 2-500; purchased BPS; host or cells: Bac (baculovirus system)
T2 sequence (O94953 2-500): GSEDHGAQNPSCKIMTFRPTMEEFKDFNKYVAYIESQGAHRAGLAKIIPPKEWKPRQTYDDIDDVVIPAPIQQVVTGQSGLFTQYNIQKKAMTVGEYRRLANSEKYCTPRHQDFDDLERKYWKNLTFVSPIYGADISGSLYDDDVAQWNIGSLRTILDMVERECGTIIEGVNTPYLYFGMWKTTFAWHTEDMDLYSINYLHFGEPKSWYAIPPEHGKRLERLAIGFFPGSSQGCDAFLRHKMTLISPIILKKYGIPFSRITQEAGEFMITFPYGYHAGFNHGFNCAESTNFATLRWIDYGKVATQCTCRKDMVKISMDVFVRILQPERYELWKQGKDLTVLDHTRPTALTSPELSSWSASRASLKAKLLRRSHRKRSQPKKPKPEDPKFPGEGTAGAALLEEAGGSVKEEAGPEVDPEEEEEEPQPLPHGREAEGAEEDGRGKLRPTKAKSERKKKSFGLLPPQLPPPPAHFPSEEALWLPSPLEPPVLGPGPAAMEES
Summary of the method: (§1)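 Enzyme 10 min pre-incubation; + compound (3% DMSO soln) 10 min; + biotin-H3 methyl-Lys peptide, 25 μM L-Asc, 10 μM α-KG, RT. Read: AlphaLISA acceptor beads, then streptavidin donor beads, RT, dark.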

[3] = biological target: T3, KDM7 (PHF8) (Homo sapiens, UniProt Q9UPP1); experiment: Histone lysine demethylase AlphaLISA assay, KDM7; assay type: biochemical; details: read-out: PHF8 HDME Inhibition IC50
T3 construct: KDM7 (PHF8); BRIC; 1-1322; Bac
Summary of the method: as §1

T3 sequence (Q9UPP1 37-440 limits assumed): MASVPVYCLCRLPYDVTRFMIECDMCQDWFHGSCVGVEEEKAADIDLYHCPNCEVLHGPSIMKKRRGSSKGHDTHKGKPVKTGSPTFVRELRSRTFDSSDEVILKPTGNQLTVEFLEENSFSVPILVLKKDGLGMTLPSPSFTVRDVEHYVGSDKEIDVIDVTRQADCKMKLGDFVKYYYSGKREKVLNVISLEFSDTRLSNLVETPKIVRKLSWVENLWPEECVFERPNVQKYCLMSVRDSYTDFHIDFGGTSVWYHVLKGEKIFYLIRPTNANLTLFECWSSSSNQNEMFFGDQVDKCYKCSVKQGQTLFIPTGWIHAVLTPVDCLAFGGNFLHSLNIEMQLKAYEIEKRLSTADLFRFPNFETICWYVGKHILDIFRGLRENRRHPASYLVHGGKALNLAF

Row | Structure (SMILES) | IC50 [1] [nM] | IC50 [2] [nM] | IC50 [3] [nM]
1 | CCN(CCC#N)C(=O)CNCc1cc(/C=N/C2CC2)ccn1 [Compound 50, N-(2-cyanoethyl)-2-[({4-[N-cyclopropyl-carboximidoyl]-pyridin-2-yl}methyl)amino]-N-ethylacetamide] | 250 to 2500 | < 250 | < 250
2 | CCN1CCCC1CNC(=O)CNCc1cc(/C=N/C2CC2)ccn1 (stereo not drawn) [Compound 51, 2-[({4-[N-cyclopropyl-carboximidoyl]-pyridin-2-yl}methyl)-amino]-N-[(1-ethylpyrrolidin-2-yl)methyl]acetamide] | 250 to 2500 | < 250 | 250 to 2500
3 | O=C(CNCc1cc(/C=N/C2CC2)ccn1)NC1CCN(Cc2ccccc2)C1 (stereo not drawn) [Compound 53, N-(1-benzylpyrrolidin-3-yl)-2-[({4-[N-cyclopropyl-carboximidoyl]pyridin-2-yl}methyl)amino]-acetamide] | 250 to 2500 | < 250 | < 250
4 | CN1CCN(C(=O)CNCc2cc(/C=N/C3CC3)ccn2)CC1 [Compound 54, 2-[({4-[N-cyclopropyl-carboximidoyl]-pyridin-2-yl}methyl)amino]-1-(4-methylpiperazin-1-yl)ethan-1-one] | 250 to 2500 | 250 to 2500 | > 2500
5 | O=C(CNCc1cc(/C=N/C2CC2)ccn1)N1CCC(Cc2ccccc2)CC1 [Compound 55, 1-(4-benzylpiperidin-1-yl)-2-[({4-[N-cyclopropyl-carboximidoyl]-pyridin-2-yl}methyl)amino]-ethan-1-one] | > 2500 | < 250 | 250 to 2500
6 | C#CCN(C)C(=O)CNCc1cc(/C=N/C2CC2)ccn1 [Compound 56, 2-[({4-[N-cyclopropyl-carboximidoyl]-pyridin-2-yl}methyl)amino]-N-methyl-N-(prop-2-yn-1-yl)acetamide] | > 2500 | 250 to 2500 | 250 to 2500
7 | CON=Cc1ccnc(CNCCCN(C)C)c1 [Compound 64, [3-(dimethylamino)-propyl]({4-[(methoxyimino)-methyl]pyridin-2-yl}methyl)amine] | > 2500 | < 250 | > 2500
8 | O=Cc1ccnc(CNCC(=O)N2CCC[C@@H]2CN2CCCC2)c1 [Compound 102, 2-[({2-oxo-2-[(2R)-2-(pyrrolidin-1-ylmethyl)pyrrolidin-1-yl]ethyl}amino)-methyl]pyridine-4-carbaldehyde] | 250 to 2500 | 250 to 2500 | > 2500
9 | CN1CCN(C(=O)CNCc2cc(C=O)ccn2)CC1 [Compound 103, 2-({[2-(4-methylpiperazin-1-yl)-2-oxoethyl]-amino}methyl)-pyridine-4-carbaldehyde] | 250 to 2500 | > 2500 | > 2500
10 | CCN1CCCC1CNC(=O)CNCc1cc(C=O)ccn1 (stereo not drawn) [Compound 104, N-[(1-ethylpyrrolidin-2-yl)methyl]-2-{[(4-formylpyridin-2-yl)methyl]amino}-acetamide] | 250 to 2500 | < 250 | 250 to 2500
11 | O=Cc1ccnc(CNCC(=O)N2CCC(Cc3ccccc3)CC2)c1 [Compound 106, 2-({[2-(4-benzylpiperidin-1-yl)-2-oxoethyl]-amino}methyl)-pyridine-4-carbaldehyde] | > 2500 | < 250 | 250 to 2500
12 | O=Cc1ccnc(CNCCCN2CCCC2)c1 [Compound 111, 2-({[3-(pyrrolidin-1-yl)propyl]amino}-methyl)pyridine-4-carbaldehyde] | < 250 | 250 to 2500 | > 2500
13 | CN(C)CCCCCNCc1cc(C=O)ccn1 [Compound 114, 2-({[5-(dimethylamino)-pentyl]amino}methyl)-pyridine-4-carbaldehyde] | < 250 | 250 to 2500 | > 2500

The next lines start with the values.

Row | IC50 [1] [nM] | IC50 [2] [nM] | IC50 [3] [nM] | Structure (SMILES)
14 | < 250 | < 250 | 250 to 2500 | O=C(CNCc1cc(/C=N/C2CC2)ccn1)N1CCC[C@@H]1CN1CCCC1 [Compound 49, 2-[({4-[N-cyclopropyl-carboximidoyl]pyridin-2-yl}methyl)amino]-1-[(2R)-2-(pyrrolidin-1-ylmethyl)pyrrolidin-1-yl]ethan-1-one]
15 | < 250 | < 250 | > 2500 | CCN(CC)CCCCNCc1cc(/C=N/CCO)ccn1 [Compound 61, 2-[{[2-({[4-(diethylamino)-butyl]amino}-methyl)pyridin-4-yl]methylidene}-amino]ethan-1-ol]
16 | < 250 | 250 to 2500 | > 2500 | CCN(CC)CCCCNCc1cc(/C=N/CC(F)(F)C(F)(F)F)ccn1 [Compound 62, {[2-({[4-(diethylamino)-butyl]amino}methyl)pyridin-4-yl]methylidene} (2,2,3,3,3-pentafluoropropyl)-amine]
17 | < 250 | 250 to 2500 | > 2500 | CCN(CCN(C)C)C(=O)CNCc1cc(/C=N/CCC2CCCCC2)ccn1 [Compound 63, 2-[({4-[[(2-cydohexylethyl)-imino]methyl]pyridin-2-yl}methyl)amino]-N-[2-(dimethylamino)-ethyl]-N-ethylacetamide]
18 | < 250 | > 2500 | > 2500 | CCN(CC)CCCCNCc1cc(C2NCCN2C)ccn1 (stereo not drawn) [Compound 65, [4-(diethylamino)-butyl]({[4-(1-methylimidazolidin-2-yl)pyridin-2-yl]methyl})amine]
19 | < 250 | < 250 | 250 to 2500 | CCN(CCN(C)C)C(=O)CNCc1cc(/C=N/CCO)ccn1 [Compound 66]
20 | < 250 | > 2500 | > 2500 | CCN(CC)CCCCNCc1cc(/C=N\CCC2CCCCC2)ccn1 [Compound 67, (2-cyclohexylethyl)-({[2-({[4-(diethylamino)-butyl]amino}methyl)pyridin-4-yl]methylidene})-amine]
21 | < 250 | > 2500 | > 2500 | CN(C)C/C=C/CNCc1cc(C=O)ccn1 [Compound 98, 2-({[(2E)-4-(dimethylamino)but-2-en-1-yl]amino}-methyl)pyridine-4-carbaldehyde]
22 | < 250 | < 250 | 250 to 2500 | CCN(CCN(C)C)C(=O)CNCc1cc(C=O)ccn1 [Compound 101]
23 | < 250 | < 250 | > 2500 | CCN(CC)CCCCNCc1cc(C=O)ccn1 [Compound 107, 2-({[4-(diethylamino)-butyl]amino}-methyl)pyridine-4-carbaldehyde]
